Ten molecules from patent publication US8476298B2 (Exelixis, Inc., priority 2003, dated 2013) can be followed below.

SMILES strings stand for the structures. Where two headings read alike, the source gives them in different places. Some results are limits rather than exact numbers.

The target in test [1] is T1, KDR (baculovirus expressed human KDR kinase domain D807-V1356) (Homo sapiens, UniProt P35968).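 Further: Luciferase-coupled chemiluminescent kinase assay, activity read as percent ATP left after 4 h reaction at ambient temperature, ATP near KM, 10-point dose-response in 384-well plates.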
T1 construct: human KDR kinase domain D807-V1356; host or cells: baculovirus expression
T1 sequence (P35968 807-1356): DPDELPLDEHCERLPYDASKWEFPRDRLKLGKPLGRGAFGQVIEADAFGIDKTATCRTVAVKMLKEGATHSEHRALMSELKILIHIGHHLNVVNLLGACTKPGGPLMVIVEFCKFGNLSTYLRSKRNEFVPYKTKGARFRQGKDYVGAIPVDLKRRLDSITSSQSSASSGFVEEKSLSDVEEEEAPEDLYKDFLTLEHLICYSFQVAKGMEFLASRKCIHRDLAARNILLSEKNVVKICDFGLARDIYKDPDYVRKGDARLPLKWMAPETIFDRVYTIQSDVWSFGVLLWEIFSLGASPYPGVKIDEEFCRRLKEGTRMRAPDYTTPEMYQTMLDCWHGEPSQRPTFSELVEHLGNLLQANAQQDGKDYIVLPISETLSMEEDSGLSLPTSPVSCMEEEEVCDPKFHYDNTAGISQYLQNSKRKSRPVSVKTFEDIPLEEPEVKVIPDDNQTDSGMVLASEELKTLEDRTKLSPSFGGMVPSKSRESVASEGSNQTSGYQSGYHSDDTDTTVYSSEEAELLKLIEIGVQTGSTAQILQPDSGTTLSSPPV
The test is described as follows: biochemical.

Test [2] has as its target T2, c-Met (baculovirus expressed human c-Met kinase domain P948-S1343) (Homo sapiens, UniProt P08581).
T2 construct: human c-Met kinase domain P948-S1343; host or cells: baculovirus expression
The test is described as follows: c-Met Luciferase-Coupled Chemiluminescent Kinase assay (LCCA).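 Further: kinase activity read as percent ATP left after reaction, by luciferase-luciferin chemiluminescence, with 1 µM ATP and 1 µM poly-EY substrate, 2 h at ambient temperature, 10-point dose-response.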 The test is classed as biochemical.

[3] abbreviates: Table 4, inhibition as IC50 class.

The term IC50 denotes the concentration at which inhibition is half-maximal.

T2 sequence (P08581 1011-1343 limits assumed): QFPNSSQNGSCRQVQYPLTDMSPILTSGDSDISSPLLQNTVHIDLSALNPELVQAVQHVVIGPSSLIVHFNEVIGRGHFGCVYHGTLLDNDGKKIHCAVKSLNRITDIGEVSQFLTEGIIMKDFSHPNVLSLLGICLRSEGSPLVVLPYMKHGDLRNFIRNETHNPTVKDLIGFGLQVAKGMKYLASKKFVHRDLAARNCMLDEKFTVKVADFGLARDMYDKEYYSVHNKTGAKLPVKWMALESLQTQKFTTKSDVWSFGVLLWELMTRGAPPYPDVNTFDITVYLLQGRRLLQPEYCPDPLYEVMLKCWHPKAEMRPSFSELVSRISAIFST

With `COc1cc2nccc(Oc3ncc(NC(=O)CC(=O)N(C)c4ccc(F)cc4)cc3Cl)c2cc1OC` [Example 253, N′-(6-{[6,7-bis(methyloxy)quinolin-4-yl]oxy}-5-chloropyridin-3-yl)-N-(4-fluorophenyl)-N-methylpropanediamide], the IC50 in test [1] (setting [3]) lay within 500 to 5000 nM; in test [2] (setting [3]) it was 50 to 500 nM.
In the same order, the values of `COc1cc2c(Oc3ccc(NC(=O)C(=O)NCc4ccc(Cl)cc4)cc3F)ccnc2cc1OCC1CCNCC1` [Example 268, N-[(4-chlorophenyl)methyl]-N′-[3-fluoro-4-({6-(methyloxy)-7-[(piperidin-4-ylmethyl)oxy]quinolin-4-yl}oxy)phenyl]ethanediamide] are under 50 nM and under 50 nM.
Consider `COc1cc2nccc(Oc3ncc(NC(=O)CC(=O)Nc4cccc(F)c4)cc3Cl)c2cc1OC` [Example 290, N-(6-{[6,7-bis(methyloxy)quinolin-4-yl]oxy}-5-chloropyridin-3-yl)-N′-(3-fluorophenyl)propanediamide], for which the IC50 in test [1] was in the range of 500 to 5000 nM; in test [2], 50 to 500 nM.
In the same order, the values of `COc1cc2nccc(Oc3ncc(NC(=O)C4(C(=O)NCCc5ccccc5)CC4)cc3Cl)c2cc1OC` [Example 302, N-(6-{[6,7-bis(methyloxy)quinolin-4-yl]oxy}-5-chloropyridin-3-yl)-N′-(2-phenylethyl)cyclopropane-1,1-dicarboxamide] are 500 to 5000 nM and 500 to 5000 nM.
On the same counts, the results for `COc1cc2nc(SC)cc(Oc3ccc(NC(=O)C4(C(=O)Nc5ccc(F)cc5)CC4)cc3F)c2cc1OC` [Example 338, N-(4-{[6,7-bis(methyloxy)-2-(methylthio)quinolin-4-yl]oxy}-3-fluorophenyl)-N′-(4-fluorophenyl)cyclopropane-1,1-dicarboxamide] are 500 to 5000 nM and 500 to 5000 nM.
On the same counts, the results for `COc1cc2nc(C)nc(Oc3ccc(NC(=O)C4(C(=O)Nc5ccc(F)cc5)CC4)cc3)c2cc1OC` [Example 339, N-(4-fluorophenyl)-N′-(4-{[2-methyl-6,7-bis(methyloxy)quinazolin-4-yl]oxy}phenyl)cyclopropane-1,1-dicarboxamide] are 500 to 5000 nM and 500 to 5000 nM.
Take `COc1cc2nc(N)cc(Oc3ccc(NC(=O)C4(C(=O)Nc5ccc(F)cc5)CC4)cc3F)c2cc1OC` [Example 340, N-(4-{[2-amino-6,7-bis(methyloxy)quinolin-4-yl]oxy}-3-fluorophenyl)-N′-(4-fluorophenyl)cyclopropane-1,1-dicarboxamide]: the IC50 in test [1] and in test [2] was 500 to 5000 nM throughout.
Consider `CNc1cc(Oc2ccc(NC(=O)C3(C(=O)Nc4ccc(F)cc4)CC3)cc2F)c2cc(OC)c(OC)cc2n1` [Example 341, N-(3-fluoro-4-{[2-(methylamino)-6,7-bis(methyloxy)quinolin-4-yl]oxy}phenyl)-N′-(4-fluorophenyl)cyclopropane-1,1-dicarboxamide], for which the IC50 in test [1] and in test [2] was 500 to 5000 nM in each case.
As for `COc1cc2c(Oc3ccc(NC(=O)[C@]4(C(=O)Nc5ccc(F)cc5)C[C@H]4C)cc3F)ncnc2cc1OCCCN1CCOCC1` [Example 347, (1R,2R)-N-[3-fluoro-4-({6-(methyloxy)-7-[(3-morpholin-4-ylpropyl)oxy]quinazolin-4-yl}oxy)phenyl]-N′-(4-fluorophenyl)-2-methylcyclopropane-1,1-dicarboxamide], the IC50 in test [1] and in test [2] was under 50 nM throughout.
`CCN(CC)CCOc1cc2ncnc(Oc3ccc(NC(=O)C4(C(=O)Nc5ccc(F)cc5)CCC4)cc3F)c2cc1OC` [Example 363, N-(4-{[7-{[2-(diethylamino)ethyl]oxy}-6-(methyloxy)quinazolin-4-yl]oxy}-3-fluorophenyl)-N′-(4-fluorophenyl)cyclobutane-1,1-dicarboxamide]: the IC50 in test [1] and in test [2] was under 50 nM in each case.
